From US8765779B2, “Tricyclic derivatives and their pharmaceutical use and compositions” (Cephalon, Inc., priority 2009, dated 2014)
Where a name gives a salt, the structure may show the parent alone.

Each molecule was assayed against T1, human 5-HT6 receptor (Homo sapiens, UniProt P50406) (assay: Human 5-HT6 Receptor Binding Assay ([3H]LSD displacement, scintillation beads)). Conditions: membranes of CHO-K1 cells with recombinant human 5-HT6, 4 nM [3H]LSD; Table 1, class symbols; read-out: h5-HT6 (Ki).
T1 construct: host or cells: CHO-K1 cells, stably transfected; membranes prepared in house
T1 sequence (P50406 whole entry): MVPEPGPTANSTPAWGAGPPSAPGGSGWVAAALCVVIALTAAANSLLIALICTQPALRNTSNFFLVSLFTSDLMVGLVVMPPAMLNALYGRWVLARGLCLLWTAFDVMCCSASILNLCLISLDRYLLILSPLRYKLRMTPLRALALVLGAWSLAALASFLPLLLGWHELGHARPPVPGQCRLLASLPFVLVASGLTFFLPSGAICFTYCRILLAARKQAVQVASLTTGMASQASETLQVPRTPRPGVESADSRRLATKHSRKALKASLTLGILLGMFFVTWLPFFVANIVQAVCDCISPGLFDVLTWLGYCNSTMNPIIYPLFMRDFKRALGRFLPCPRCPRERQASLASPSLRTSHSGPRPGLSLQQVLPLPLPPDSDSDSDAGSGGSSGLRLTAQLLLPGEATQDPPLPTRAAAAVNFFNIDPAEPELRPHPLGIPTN
For CC1(C)NCCc2c1oc1ccc(S(=O)(=O)c3cccc(F)c3)cc21 [Example 42, 6-[(3-fluorophenyl)sulfonyl]-1,1-dimethyl-1,2,3,4-tetrahydro[1]benzofuro[2,3-c]pyridine], the Ki was 500 to 1000 nM. Work on O=S(=O)(c1cccc(F)c1)c1ccc2oc3c(c2c1)CCNC3CCC(F)(F)F (stereo not shown) [Example 519] yielded a Ki of 500 to 1000 nM. O=S(=O)(c1ccc2c(c1)OCCO2)c1ccc2c3c(oc2c1)CNCC3 [Example 200] showed a Ki of less than 500 nM. O=S(=O)(c1ccc2c(c1)OC1CNCCC21)c1cccc2cccnc12 (stereo not shown) [Example 333] was tested, and the Ki was less than 500 nM. COc1cc(OCC2CCOCC2)cc(S(=O)(=O)c2ccc3c(c2)OC2CNCCC32)c1 (stereo not shown) [Example 584] gave a Ki of less than 500 nM. O=S(=O)(c1ccc2c3c(oc2c1)CNCC3)c1cccc(Cl)c1Cl [Example 196, 7-[(2,3-dichlorophenyl)sulfonyl]-1,2,3,4-tetrahydro[1]benzofuro[2,3-c]pyridine] gave a Ki of less than 500 nM. Molecule O=S(=O)(c1cc(F)cc(F)c1)c1ccc2c(c1)OC1CNCCC21 (stereo not shown) [Example 158] has a Ki of less than 500 nM. O=S(=O)(c1ccncc1)c1ccc2oc3c(c2c1)CCNC3 [Example 352] showed a Ki greater than 1000 nM. O=S(=O)(c1cccc(OC(F)(F)F)c1)c1ccc2c3c([nH]c2c1)C1(CCCOC1)NCC3 (single isomer, unassigned) [Example 319] was tested, and the Ki was less than 500 nM. With Cc1nc(COc2cccc(S(=O)(=O)c3ccc4c(c3)OC3CNCCC43)c2)cs1 (stereo not shown) [Example 569] the Ki was less than 500 nM. Work on CC(C)Oc1cc(F)cc(S(=O)(=O)c2ccc3c(c2)OC2CNCCC32C)c1 (stereo not shown) [Example 427] yielded a Ki of less than 500 nM. In the case of O=S(=O)(c1ccccc1)c1ccc2c(c1)OC1CNCCC21 (stereo not shown) [Example 324, 7-(phenylsulfonyl)-1,2,3,4,4a,9a-hexahydro[1]benzofuro[2,3-c]pyridine], the Ki is reported as less than 500 nM. O=S(=O)(Cc1ccccc1Cl)Oc1ccc2c(c1)C1CCNCC1O2 (stereo not shown) [Example 754] was tested, and the Ki was greater than 1000 nM. Molecule Cc1ccc(S(=O)(=O)Oc2ccc3c(c2)OC2CNCCC32)cc1 (stereo not shown) [Example 642] has a Ki of less than 500 nM. For O=S(=O)(Oc1ccc2c(c1)OC1CN(C3CCCC3)CCC21)c1ccc(Cl)cc1 (stereo not shown) [Example 801], the Ki was greater than 1000 nM. Cc1c(Cl)cccc1S(=O)(=O)Oc1ccc2c(c1)OC1CNCCC21 (stereo not shown) [Example 658] showed a Ki of less than 500 nM. With O=S(=O)(c1ccccc1)c1ccc2c(c1)C1CCNCC1O2 (stereo not shown) [Example 337, 6-(phenylsulfonyl)-1,2,3,4,4a,9a-hexahydro[1]benzofuro[2,3-c]pyridine] the Ki was greater than 1000 nM. Work on Cc1ccc(S(=O)(=O)c2ccc3c(c2)OC2CNCCC32)cc1 (stereo not shown) [Example 121] yielded a Ki of less than 500 nM. O=S(=O)(c1ccccc1-c1ccccc1)c1cccc2c1OC1CNCCC21 (stereo not shown) [Example 191] was tested, and the Ki was less than 500 nM. For O=S(=O)(Oc1ccc2c(c1)C1CCNCC1O2)c1ccc(Cl)cc1 (stereo not shown) [Example 695], the Ki was greater than 1000 nM. For O=S(=O)(c1cccc(F)c1)c1ccc2oc3c(c2c1)CCN1CCCCC31 (stereo not shown) [Example 618], the Ki was greater than 1000 nM. O=S(=O)(c1ccc2oc3c(c2c1)CCNC3)c1cccc2cccnc12 [Example 354] gave a Ki of less than 500 nM. O=S(=O)(Oc1ccc2c(c1)OC1CNCCC21)c1ccc(F)c(Cl)c1 (stereo not shown) [Example 663] showed a Ki of less than 500 nM. With O=S(=O)(c1cc(Cl)cc(Cl)c1)c1ccc2oc3c(c2c1)CCNC3 [Example 262, 6-[(3,5-dichlorophenyl)sulfonyl]-1,2,3,4-tetrahydro[1]benzofuro[2,3-c]pyridine] the Ki was less than 500 nM. O=S(=O)(c1cccc(OCc2cccnc2)c1)c1ccc2c(c1)OC1CNCCC21 (stereo not shown) [Example 559] showed a Ki of less than 500 nM. CC12CCNCC1Oc1ccc(OS(=O)(=O)c3ccc(-c4cnco4)cc3)cc12 (stereo not shown) [Example 777] showed a Ki greater than 1000 nM. For COc1cccc(S(=O)(=O)Oc2ccc3c(c2)C2CCNCC2O3)c1 (stereo not shown) [Example 708], the Ki was 500 to 1000 nM. For CC(C)(C)c1ccc(S(=O)(=O)Oc2ccc3c(c2)C2CCNCC2O3)cc1 (stereo not shown) [Example 727], the Ki was 500 to 1000 nM. With O=S(=O)(c1ccc(Cl)c(C(F)(F)F)c1)c1ccc2oc3c(c2c1)CCNC3 [Example 257] the Ki was less than 500 nM. With COc1ccccc1NS(=O)(=O)c1ccc2c(c1)C1CCNCC1O2 (stereo not shown) [Example 841] the Ki was greater than 1000 nM. Cc1ccc(F)cc1S(=O)(=O)c1ccc2oc3c(c2c1)CCNC3 [Example 254] was tested, and the Ki was less than 500 nM. Molecule [O-][S+](c1ccc2c(c1)OC1CNCCC21)c1cc(Cl)ccc1Cl (stereo not shown) [Example 135] has a Ki greater than 1000 nM. O=S(=O)(c1ccc2c(c1)C1CCNCC1O2)N1CCC(c2ccccc2)CC1 (stereo not shown) [Example 861] was tested, and the Ki was 500 to 1000 nM. Work on COc1cc(OC(C)C)cc(S(=O)(=O)c2ccc3c(c2)OC2CNCCC32)c1 (stereo not shown) [Example 77] yielded a Ki of less than 500 nM. With O=S(=O)(c1ccncc1)c1ccc2c(c1)OC1CNCCC21 (stereo not shown) [Example 330] the Ki was greater than 1000 nM. Molecule O=S(=O)(c1ccc2c(c1)OC1CNCCC21)c1ccc(Cl)c(C(F)(F)F)c1 (stereo not shown) [Example 148] has a Ki of less than 500 nM. Work on CC(=O)N1CCc2c(oc3cc(S(=O)(=O)c4ccccc4)ccc23)C1 [Example 614, 1-[7-(Phenylsulfonyl)-3,4-dihydro[1]benzofuro[2,3-c]pyridin-2(1H)-yl]ethanone trifluoroacetate] yielded a Ki of less than 500 nM. Work on O=S(=O)(c1ccccc1)c1ccc2c3c(oc2c1)C(C(F)F)NCC3 (stereo not shown) [Example 523] yielded a Ki of less than 500 nM. Work on O=S(=O)(c1cccc(C(F)(F)F)c1)c1ccc2c3c(oc2c1)C1(CCOC1)NCC3 (stereo not shown) [Example 307] yielded a Ki of less than 500 nM. With COc1ccc(S(=O)(=O)Oc2ccc3c(c2)C2(C)CCNCC2O3)cc1 (stereo not shown) [Example 760] the Ki was greater than 1000 nM. For N#CCCCCOc1cccc(S(=O)(=O)c2ccc3c(c2)OC2CNCCC32)c1 (stereo not shown) [Example 574], the Ki was less than 500 nM. O=S(=O)(c1ccc(C(F)(F)F)cc1)c1ccc2c(c1)OC1CNCCC21 (stereo not shown) [Example 151] gave a Ki of 500 to 1000 nM. O=S(=O)(c1ccc2c(c1)C1CCNCC1O2)c1cccc2ccccc12 (stereo not shown) [Example 170] showed a Ki of less than 500 nM. Work on COCC1(C)NCCc2c1oc1cc(S(=O)(=O)c3cccc(F)c3)ccc21 (racemic) [Example 49, 7-[(3-fluorophenyl)sulfonyl]-1-(methoxymethyl)-1-methyl-1,2,3,4-tetrahydro[1]benzofuro[2,3-c]pyridine] yielded a Ki of less than 500 nM. CC1(C)NCCc2c1oc1cc(S(=O)(=O)c3cccc(F)c3F)ccc21 [Example 365] was tested, and the Ki was less than 500 nM. Molecule O=S(=O)(c1ccc2c(c1)OC1CNCCC21)c1cccc2c1OCCO2 (stereo not shown) [Example 462] has a Ki greater than 1000 nM. Molecule COc1cc(S(=O)(=O)c2ccc3c4c(oc3c2)CNCC4(C)C)c[n+]([O-])c1 [Example 450] has a Ki greater than 1000 nM. Work on O=S(=O)(c1cc(F)cc(Cl)c1)c1ccc2c3c(oc2c1)CNCC3 [Example 207] yielded a Ki of less than 500 nM. COc1cc(OC)cc(S(=O)(=O)c2ccc3c(c2)OC2CNCCC32C)c1 (stereo not shown) [Example 487] was tested, and the Ki was less than 500 nM. Molecule Nc1cccc(S(=O)(=O)c2ccc3c4c(oc3c2)CNCC4)c1 [Example 342] has a Ki of less than 500 nM. CC(C)S(=O)(=O)c1ccc2c3c(oc2c1)CNCC3 [Example 234] showed a Ki greater than 1000 nM. With O=S(=O)(Oc1ccc2c(c1)C1CCNCC1O2)c1cccc(F)c1 (stereo not shown) [Example 701] the Ki was greater than 1000 nM. O=S(=O)(c1ccc2c(c1)OC1CNCCC21)c1cccc(Cl)c1Cl (stereo not shown) [Example 123] gave a Ki of less than 500 nM. Work on O=S(=O)(c1cccc(Cl)c1)c1ccc2c3c(oc2c1)C1CCCCN1CC3 (stereo not shown) [Example 620] yielded a Ki of less than 500 nM. COC(=O)CCCCOc1cccc(S(=O)(=O)c2ccc3c(c2)OC2CNCCC32)c1 (stereo not shown) [Example 556] was tested, and the Ki was less than 500 nM. Molecule O=S(=O)(c1cccc(OCCn2cccc2)c1)c1ccc2c(c1)OC1CNCCC21 (stereo not shown) [Example 573] has a Ki of less than 500 nM. Work on O=S(=O)(Oc1ccc2c(c1)C1CCNCC1O2)c1cccc2ccccc12 (stereo not shown) [Example 720] yielded a Ki of less than 500 nM. For O=S(=O)(Oc1ccc2c(c1)C1CCNCC1O2)c1csc2ccccc12 (stereo not shown) [Example 725], the Ki was less than 500 nM. In the case of O=S(=O)(Nc1cc(Cl)cc(Cl)c1)c1ccc2c(c1)C1CCNCC1O2 (stereo not shown) [Example 843], the Ki is reported as greater than 1000 nM. Work on [O-][S+](c1ccc2c(c1)OC1CNCCC21)c1c(F)c(F)cc(F)c1F (stereo not shown) [Example 144] yielded a Ki greater than 1000 nM. O=S(=O)(c1ccc2c3c(oc2c1)CNCC3)c1cccnc1F [Example 434] was tested, and the Ki was less than 500 nM. O=S(=O)(c1cccc(C(F)(F)F)c1)c1ccc2c3c(oc2c1)CNCC3 [Example 192] showed a Ki of less than 500 nM. O=S(=O)(c1cccc(Cl)c1)c1ccc2c3c(oc2c1)C1(CCOC1)NCC3 (stereo not shown) [Example 306] was tested, and the Ki was less than 500 nM. In the case of O=S(=O)(CCc1ccccc1)Oc1ccc2c(c1)OC1CNCCC21 (stereo not shown) [Example 691], the Ki is reported as greater than 1000 nM. For [O-][S+](c1ccc2oc3c(c2c1)CCNC3)c1cc(F)cc(F)c1F (stereo not shown) [Example 443], the Ki was greater than 1000 nM. COc1cccc(S(=O)(=O)c2ccc3c4c(oc3c2)CNCC4)c1 [Example 199] gave a Ki of less than 500 nM. CC12CCNCC1Oc1cc(S(=O)(=O)c3cncc(Cl)c3)ccc12 (stereo not shown) [Example 430] gave a Ki of less than 500 nM. Molecule CC(C)Oc1cccc(S(=O)(=O)c2ccc3c(c2)OC2CNCCC32)c1 (stereo not shown) [Example 136] has a Ki of less than 500 nM. Work on Cc1cc(C)cc(S(=O)(=O)Oc2ccc3c(c2)C2CCNCC2O3)c1 (stereo not shown) [Example 705] yielded a Ki of less than 500 nM. For O=S(=O)(c1cc[n+]([O-])cc1)c1ccc2oc3c(c2c1)CCNC3 [Example 351], the Ki was greater than 1000 nM. Molecule Cc1c(S(=O)(=O)Oc2ccc3c(c2)C2CCNCC2O3)sc2ccc(Cl)cc12 (stereo not shown) [Example 748] has a Ki of less than 500 nM. Molecule CC(C)N1CCC2c3ccc(OS(=O)(=O)c4ccc(Cl)cc4)cc3OC2C1 (stereo not shown) [Example 798, 2-(Propan-2-yl)-1,2,3,4,4a,9a-hexahydro[1]benzofuro[2,3-c]pyridin-7-yl-4-chlorobenzenesulfonate] has a Ki greater than 1000 nM. In the case of O=S(=O)(c1cccc(OC(F)(F)F)c1)c1ccc2oc3c(c2c1)CCNC3 [Example 270, 6-{[3-(trifluoromethoxy)phenyl]sulfo-nyl}-1,2,3,4-tetrahydro[1]benzofuro[2,3-c]pyridine], the Ki is reported as less than 500 nM. COCC1(COC)NCCc2c1oc1cc(S(=O)(=O)c3cccc(F)c3)ccc21 [Example 39, 7-[(3-fluorophenyl)sulfonyl]-1,1-bis(methoxymethyl)-1,2,3,4-tetrahydro[1]benzofuro[2,3-c]pyridine] was tested, and the Ki was less than 500 nM. O=S(=O)(Cc1cccc(C(F)(F)F)c1)Oc1ccc2c(c1)C1CCNCC1O2 (stereo not shown) [Example 750] was tested, and the Ki was greater than 1000 nM. Cc1cc(COc2cccc(S(=O)(=O)c3ccc4c(c3)OC3CNCCC43)c2)no1 (stereo not shown) [Example 565] gave a Ki of less than 500 nM.
